Experimental data from patent US20260167620A1, “MULTIFUNCTIONAL COMPOUND CAPABLE OF DEGRADING BTK KINASE, AND COMPOSITION AND USE” (HANGZHOU HEALZEN THERAPEUTICS CO., LTD., priority 2021, published 2026).

Legend:
BTK = molecular target: T1, BTK (Homo sapiens, UniProt Q06187); experiment: BTK degradation activity test in Mino cells (Westernblot or Elisa); assay type: cell-based; details: 24-72 h incubation
T1 construct: endogenous in cells; host or cells: Mino cells
Experimental: The Mino cell line cells are 0.5˜1 million/well in 6-well plates. The compounds are diluted to different concentrations, added to the plate, and after 24-72 h of incubation, the cells are collected. After the cells were lysed, the total protein concentration in each well was determined with a BCA kit. The amount of BTK is determined using the Westernblot or Elisa method.

Mino cells = experiment: Inhibitory activity on Mino cell proliferation (MTS); assay type: cell-based; details: Homo sapiens, 72 h or 168 h
Experimental: (§1) The anti-tumor efficacy of the compounds was tested by measuring their inhibitory effects on OCI-LY10 and Mino cell proliferation. OCI-LY10 and Mino cells were cultured in RPM-1640 medium containing […] fetal calf serum. OCI-LY10 and Mino cells were digested, inoculated in a 96-well plate at a cell concentration of 10000 cells/well, and incubated overnight at 37° C., 5% CO2. Compounds of different concentrations (1000 nM, 4-fold dilution, 8 points) were added to the 96-well plate and incubated for 72 h or 168 h at 37° C. and […], and then 20 μL of MTS was added to each well. After incubation for 2 h, 25 μl of 10% SDS was added to each well to terminate the reaction. The absorbance at 490 nm and 650 nm were measured with a microplate reader. IC50 was calculated using GraphPad Prism 5.0.

OCI-LY10 cells = experiment: Inhibitory activity on OCI-LY10 cell proliferation (MTS); assay type: cell-based; details: Homo sapiens, 72 h or 168 h
Experimental: as §1

[1] = Liver microsomal metabolic stability, human; assay type: in vitro ADME; details: human liver microsomes, NADPH, 37° C.
Experimental: (§2) Under the condition of ice bath, 1 mg of human or Mouse liver microparticles was add to PBS (1 mL) buffer, then NADPH (20 μL) was added, and incubated at 37° C. for 5 min. 10 μL of the compound to be tested was added, then suck several times with a pipette and divide into 3 aliquots of 330 μL; each and then samples were taken at 0, 15, 30, 60 and 120 min respectively. 10 μL of the solution was taken with a pipette each time and added to 490 μL of the solution containing the internal standard compound. The resulting solution was vortexed and then placed on ice, and then sampling at another time point continues. All samples were centrifuged at 10,000 rpm for 10 min, and the supernatant was taken for LC/MS testing. The metabolism of the compound in liver microsomes was calculated based on the peak area.

[2] = Liver microsomal metabolic stability, mouse; assay type: in vitro ADME; details: mouse liver microsomes, NADPH, 37° C.
Experimental: as §2

Mouse absorption test = assay type: in vivo; details: mice, intragastric 10 mg/kg, plasma
Experimental: (§3) Experimental method: mice were used as experimental animals, and drugs were administered intragastrically at 10 mg/kg (5% DMSO+5% Solutol+90% saline). The blood collection time points for intragastric administration were 0.25, 0.5, 1, 2, 4, 6, 8, and 24 h. 0.3 ml of whole blood was taken, and 0.1 ml of plasma was taken after centrifugation and analyzed by LC-MS.

Rat absorption test = assay type: in vivo; details: SD rats, intragastric 10 mg/kg, plasma
Experimental: as §3, with “SD Rats” for “Experimental method: mice”, “Solutol+90% normal” for “Solutol+90%”

T1 sequence (Q06187 whole entry): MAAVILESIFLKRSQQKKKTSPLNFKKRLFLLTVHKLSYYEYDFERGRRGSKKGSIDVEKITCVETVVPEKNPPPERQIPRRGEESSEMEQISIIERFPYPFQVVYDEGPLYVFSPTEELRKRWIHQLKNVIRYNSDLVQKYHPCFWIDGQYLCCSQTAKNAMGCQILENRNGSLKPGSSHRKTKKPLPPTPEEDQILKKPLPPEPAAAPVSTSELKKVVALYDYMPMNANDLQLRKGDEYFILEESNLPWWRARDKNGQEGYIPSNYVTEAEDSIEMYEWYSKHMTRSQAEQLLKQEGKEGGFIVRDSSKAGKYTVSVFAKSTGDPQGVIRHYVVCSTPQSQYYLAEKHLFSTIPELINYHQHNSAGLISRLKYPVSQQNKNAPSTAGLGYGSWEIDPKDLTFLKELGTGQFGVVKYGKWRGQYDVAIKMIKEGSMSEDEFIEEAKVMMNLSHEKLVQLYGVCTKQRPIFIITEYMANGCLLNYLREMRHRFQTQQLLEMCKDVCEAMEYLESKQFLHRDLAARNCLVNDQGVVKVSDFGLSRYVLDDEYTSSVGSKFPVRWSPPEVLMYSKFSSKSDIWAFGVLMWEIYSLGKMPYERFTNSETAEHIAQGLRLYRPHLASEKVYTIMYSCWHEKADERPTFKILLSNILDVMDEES

DC50 (BTK) [nM] | IC50 (OCI-LY10 cells) [nM] | Thalf (min) Human [1] [min] | Thalf (min) Mouse [2] [min] | DNAUC (Mouse absorption test) | DNAUC (Rat absorption test) | Compound | IC50 (Mino cells) [nM]
< 10 | 3 | 71.37 | 47.13 | 2300 AUC (h*ng/mL)/dose (mg/kg) | – | NC(=O)c1nnc(N2CCCCC2)nc1Nc1ccc(C2CCN(CC3CCN(c4ccc5c(c4)C(=O)N(C4CCC(=O)NC4=O)C5=O)C3)CC2)cc1 (centres unmarked) [Compound 001, 5-((4-(1-((1-(2-(2,6-dioxopiperidin-3-yl)-1,3-dioxoisoindolin-5-yl)pyrrolidin-3-yl)methyl)piperidin-4-yl)phenyl)amino)-3-(piperidin-1-yl)-1,2,4-triazine-6-carboxamide] | 5.5
< 10 | – | 38 | 120 | 1686 AUC (h*ng/mL)/dose (mg/kg) | 716 AUC (h*ng/mL)/dose (mg/kg) | NC(=O)c1nnc(N2CCCCC2)nc1Nc1ccc(N2CCC(CN3CCN(c4cc5c(cc4F)C(=O)N(C4CCC(=O)NC4=O)C5=O)CC3)CC2)c(F)c1 (centres unmarked) [Compound 045, 5-((4-(4-((4-(2-(2,6-dioxopiperidin-3-yl)-6-fluoro-1,3-dioxoisoindolin-5-yl)piperazin-1-yl)methyl)piperidin-1-yl)-3-fluorophenyl)amino)-3-(piperidin-1-yl)-1,2,4-triazine-6-carboxamide] | 3.91
< 10 | – | – | – | 1648 AUC (h*ng/mL)/dose (mg/kg) | 456 AUC (h*ng/mL)/dose (mg/kg) | NC(=O)c1nnc(N2CCCCC2)nc1Nc1ccc(N2CCN(CC3CCN(c4ccc5c(c4)C(=O)N(C4CCC(=O)NC4=O)C5=O)C3)CC2)c(F)c1 (centres unmarked) [Compound 003, 5-((4-(4-((1-(2-(2,6-dioxopiperidin-3-yl)-1,3-dioxoisoindolin-5-yl)pyrrolidin-3-yl)methyl)piperazin-1-yl)-3-fluorophenyl)amino)-3-(piperidin-1-yl)-1,2,4-triazine-6-carboxamide] | –
< 10 | – | 120 | 54 | 2223 AUC (h*ng/mL)/dose (mg/kg) | 252 AUC (h*ng/mL)/dose (mg/kg) | NC(=O)c1nnc(N2CCCCC2)nc1Nc1ccc(C2CCN(CC3CCN(c4ccc5c(c4)C(=O)N(C4CCC(=O)NC4=O)C5=O)C3)CC2)c(F)c1 (centres unmarked) [Compound 002, 5-((4-(1-((1-(2-(2,6-dioxopiperidin-3-yl)-1,3-dioxoisoindolin-5-yl)pyrrolidin-3-yl)methyl)piperidin-4-yl)-3-fluorophenyl)amino)-3-(piperidin-1-yl)-1,2,4-triazine-6-carboxamide] | –
